In patent publication US20100137449A1, “SUBSTITUTED 1,3-CYCLOPENTADIONE MULTI-TARGET PROTEIN KINASE MODULATORS OF CANCER, ANGIOGENESIS AND THE INFLAMMATORY PATHWAYS ASSOCIATED THEREWITH” (METAPROTEOMICS, LLC, priority 2007, published 2010):

What was measured:
Assay in all cases: KinaseProfiler Assay
Abl(m) = Abl(m) (Mus musculus, UniProt P00520)
CDK1/cyclinB(h) = CDK1/cyclinB(h) (Homo sapiens, UniProt P06493)
CK1γ1(h) = CK1γ1(h) (Homo sapiens, UniProt Q9HCP0)
cKit(V560G)(h) = cKit(V560G)(h) (Homo sapiens, UniProt P10721, V560G)
FGFR3(h) = FGFR3(h) (Homo sapiens, UniProt P22607)
MKK4(m) = target: T1, MKK4(m) (Mus musculus, UniProt P47809)
T1 sequence (P47809 1-397): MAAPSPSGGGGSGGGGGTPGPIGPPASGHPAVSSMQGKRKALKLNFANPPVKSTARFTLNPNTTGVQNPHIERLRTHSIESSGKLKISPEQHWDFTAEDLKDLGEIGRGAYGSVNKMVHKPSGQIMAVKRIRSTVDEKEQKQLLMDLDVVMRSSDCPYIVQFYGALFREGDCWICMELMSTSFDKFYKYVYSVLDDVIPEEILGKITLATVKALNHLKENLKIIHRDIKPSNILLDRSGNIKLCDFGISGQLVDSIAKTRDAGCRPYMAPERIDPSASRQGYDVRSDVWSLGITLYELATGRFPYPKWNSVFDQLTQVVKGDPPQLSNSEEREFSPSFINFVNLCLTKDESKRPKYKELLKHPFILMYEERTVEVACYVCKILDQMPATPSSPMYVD

NEK6(h) = NEK6(h) (Homo sapiens, UniProt Q9HC98)
NLK(h) = target: T2, NLK(h) (Homo sapiens, UniProt Q9UBE8)
T2 sequence (Q9UBE8 1-527): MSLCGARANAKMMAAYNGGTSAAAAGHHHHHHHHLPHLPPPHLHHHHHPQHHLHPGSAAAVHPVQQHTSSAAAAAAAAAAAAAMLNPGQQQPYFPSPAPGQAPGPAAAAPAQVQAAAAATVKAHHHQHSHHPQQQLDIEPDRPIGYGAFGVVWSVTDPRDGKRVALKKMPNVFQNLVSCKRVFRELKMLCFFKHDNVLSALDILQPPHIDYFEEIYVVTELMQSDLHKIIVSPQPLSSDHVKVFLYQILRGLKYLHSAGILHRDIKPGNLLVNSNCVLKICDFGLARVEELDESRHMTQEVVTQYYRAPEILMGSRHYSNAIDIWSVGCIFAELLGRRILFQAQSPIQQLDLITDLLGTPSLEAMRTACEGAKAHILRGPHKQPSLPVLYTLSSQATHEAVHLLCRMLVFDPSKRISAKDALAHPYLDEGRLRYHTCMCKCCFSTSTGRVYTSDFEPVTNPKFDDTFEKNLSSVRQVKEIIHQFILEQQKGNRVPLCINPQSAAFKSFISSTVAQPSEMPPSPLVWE

Pim-3(h) = Pim-3(h) (Homo sapiens, UniProt Q86V86)
PKA(h) = PKA(h) (Homo sapiens, UniProt P17612)
TSSK2(h) = target: T3, TSSK2(h) (Homo sapiens, UniProt Q96PF2)
T3 sequence (Q96PF2 1-358): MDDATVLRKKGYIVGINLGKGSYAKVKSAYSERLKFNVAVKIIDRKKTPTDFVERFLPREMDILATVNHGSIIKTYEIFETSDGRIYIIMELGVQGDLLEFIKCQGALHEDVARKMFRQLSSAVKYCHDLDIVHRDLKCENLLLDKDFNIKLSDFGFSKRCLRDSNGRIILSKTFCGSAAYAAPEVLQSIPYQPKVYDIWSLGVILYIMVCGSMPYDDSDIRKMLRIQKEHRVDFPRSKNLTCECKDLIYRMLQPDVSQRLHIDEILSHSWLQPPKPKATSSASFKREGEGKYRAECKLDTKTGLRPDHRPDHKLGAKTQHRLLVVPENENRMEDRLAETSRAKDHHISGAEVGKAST

Chain of cKit(V560G)(h) (P10721 26-976 V560G): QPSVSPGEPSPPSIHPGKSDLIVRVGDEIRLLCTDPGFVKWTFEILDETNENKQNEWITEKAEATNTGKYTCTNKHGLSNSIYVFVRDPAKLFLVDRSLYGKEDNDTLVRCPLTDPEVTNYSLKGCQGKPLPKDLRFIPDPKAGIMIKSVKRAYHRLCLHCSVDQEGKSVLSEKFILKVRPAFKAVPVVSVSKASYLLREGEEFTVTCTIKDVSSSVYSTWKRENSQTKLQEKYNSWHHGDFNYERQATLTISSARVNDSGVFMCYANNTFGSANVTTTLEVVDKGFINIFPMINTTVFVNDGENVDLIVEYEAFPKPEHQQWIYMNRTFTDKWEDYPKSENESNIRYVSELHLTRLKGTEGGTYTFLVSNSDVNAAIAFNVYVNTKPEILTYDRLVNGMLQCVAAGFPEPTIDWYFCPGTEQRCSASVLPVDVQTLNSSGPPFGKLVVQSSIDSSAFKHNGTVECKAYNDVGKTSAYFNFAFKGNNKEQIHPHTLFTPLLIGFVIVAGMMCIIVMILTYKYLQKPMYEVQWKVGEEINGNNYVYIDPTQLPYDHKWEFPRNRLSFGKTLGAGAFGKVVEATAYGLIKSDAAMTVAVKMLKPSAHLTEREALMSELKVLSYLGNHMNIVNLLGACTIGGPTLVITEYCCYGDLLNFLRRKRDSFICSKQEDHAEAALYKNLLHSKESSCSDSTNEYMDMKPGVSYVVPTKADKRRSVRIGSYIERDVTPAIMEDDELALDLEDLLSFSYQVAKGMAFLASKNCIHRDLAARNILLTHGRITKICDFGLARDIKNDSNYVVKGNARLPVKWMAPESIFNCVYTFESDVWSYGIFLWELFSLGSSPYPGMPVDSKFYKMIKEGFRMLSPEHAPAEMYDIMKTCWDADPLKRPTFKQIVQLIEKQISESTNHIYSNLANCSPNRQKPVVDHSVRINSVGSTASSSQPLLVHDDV
Chain of FGFR3(h) (P22607 23-806): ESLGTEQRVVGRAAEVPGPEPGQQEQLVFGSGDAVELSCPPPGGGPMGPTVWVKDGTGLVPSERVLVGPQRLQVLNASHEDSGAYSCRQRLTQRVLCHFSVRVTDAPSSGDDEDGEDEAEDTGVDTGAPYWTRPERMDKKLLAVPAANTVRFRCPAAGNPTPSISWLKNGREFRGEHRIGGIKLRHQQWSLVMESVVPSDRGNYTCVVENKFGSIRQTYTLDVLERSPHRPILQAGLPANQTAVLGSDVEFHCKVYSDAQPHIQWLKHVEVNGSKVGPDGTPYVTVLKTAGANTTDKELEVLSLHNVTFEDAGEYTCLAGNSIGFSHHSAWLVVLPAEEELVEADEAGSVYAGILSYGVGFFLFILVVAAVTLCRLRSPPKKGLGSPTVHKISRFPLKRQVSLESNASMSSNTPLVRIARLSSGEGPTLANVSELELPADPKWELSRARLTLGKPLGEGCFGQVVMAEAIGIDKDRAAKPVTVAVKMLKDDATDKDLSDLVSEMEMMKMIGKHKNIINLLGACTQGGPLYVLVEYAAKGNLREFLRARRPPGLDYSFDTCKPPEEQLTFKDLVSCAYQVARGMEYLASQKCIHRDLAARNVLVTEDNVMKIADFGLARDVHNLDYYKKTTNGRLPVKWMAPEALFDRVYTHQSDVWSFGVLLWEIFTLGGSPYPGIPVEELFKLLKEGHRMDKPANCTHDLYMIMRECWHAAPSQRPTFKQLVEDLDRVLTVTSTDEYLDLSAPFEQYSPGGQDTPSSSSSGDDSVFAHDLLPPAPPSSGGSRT
Chain of Abl(m) (P00520 whole entry): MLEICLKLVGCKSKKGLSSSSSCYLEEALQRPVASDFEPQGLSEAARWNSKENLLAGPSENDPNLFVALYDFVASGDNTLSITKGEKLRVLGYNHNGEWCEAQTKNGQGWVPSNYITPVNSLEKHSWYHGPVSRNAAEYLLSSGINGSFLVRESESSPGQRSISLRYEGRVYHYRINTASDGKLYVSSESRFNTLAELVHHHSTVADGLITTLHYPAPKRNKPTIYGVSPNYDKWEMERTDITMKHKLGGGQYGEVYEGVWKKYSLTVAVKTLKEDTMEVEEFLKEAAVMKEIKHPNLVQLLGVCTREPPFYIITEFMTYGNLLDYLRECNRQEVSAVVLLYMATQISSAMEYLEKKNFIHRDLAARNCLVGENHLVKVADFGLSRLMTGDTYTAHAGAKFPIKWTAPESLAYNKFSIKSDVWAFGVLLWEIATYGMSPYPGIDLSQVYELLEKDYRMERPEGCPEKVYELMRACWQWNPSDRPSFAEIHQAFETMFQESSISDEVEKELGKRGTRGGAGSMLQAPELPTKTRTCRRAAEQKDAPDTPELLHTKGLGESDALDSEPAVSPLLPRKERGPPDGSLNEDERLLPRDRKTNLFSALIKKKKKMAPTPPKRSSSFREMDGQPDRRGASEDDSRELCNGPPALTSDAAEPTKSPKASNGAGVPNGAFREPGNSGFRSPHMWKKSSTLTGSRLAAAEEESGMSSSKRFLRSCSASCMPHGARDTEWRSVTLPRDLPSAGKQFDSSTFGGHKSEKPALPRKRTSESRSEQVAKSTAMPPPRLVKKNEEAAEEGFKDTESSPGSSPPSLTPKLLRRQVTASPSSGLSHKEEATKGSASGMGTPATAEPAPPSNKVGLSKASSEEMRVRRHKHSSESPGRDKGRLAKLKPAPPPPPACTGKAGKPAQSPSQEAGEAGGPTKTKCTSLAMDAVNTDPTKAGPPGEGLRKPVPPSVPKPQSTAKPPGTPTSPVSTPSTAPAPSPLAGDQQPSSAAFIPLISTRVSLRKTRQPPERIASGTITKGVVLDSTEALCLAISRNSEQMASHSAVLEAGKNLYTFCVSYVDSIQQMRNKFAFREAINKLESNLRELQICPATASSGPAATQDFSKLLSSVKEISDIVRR
Chain of CK1γ1(h) (Q9HCP0 whole entry): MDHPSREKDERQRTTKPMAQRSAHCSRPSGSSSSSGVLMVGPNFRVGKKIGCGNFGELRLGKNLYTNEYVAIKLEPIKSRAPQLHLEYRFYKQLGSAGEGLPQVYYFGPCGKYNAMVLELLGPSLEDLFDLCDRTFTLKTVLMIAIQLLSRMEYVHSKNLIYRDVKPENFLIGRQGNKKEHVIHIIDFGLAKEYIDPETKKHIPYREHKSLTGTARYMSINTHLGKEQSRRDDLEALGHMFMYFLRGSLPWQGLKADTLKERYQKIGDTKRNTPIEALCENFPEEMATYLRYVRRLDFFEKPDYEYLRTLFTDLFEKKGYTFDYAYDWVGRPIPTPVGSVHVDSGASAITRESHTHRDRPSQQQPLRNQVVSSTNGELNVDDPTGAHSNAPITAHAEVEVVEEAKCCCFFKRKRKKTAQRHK
Chain of NEK6(h) (Q9HC98 whole entry): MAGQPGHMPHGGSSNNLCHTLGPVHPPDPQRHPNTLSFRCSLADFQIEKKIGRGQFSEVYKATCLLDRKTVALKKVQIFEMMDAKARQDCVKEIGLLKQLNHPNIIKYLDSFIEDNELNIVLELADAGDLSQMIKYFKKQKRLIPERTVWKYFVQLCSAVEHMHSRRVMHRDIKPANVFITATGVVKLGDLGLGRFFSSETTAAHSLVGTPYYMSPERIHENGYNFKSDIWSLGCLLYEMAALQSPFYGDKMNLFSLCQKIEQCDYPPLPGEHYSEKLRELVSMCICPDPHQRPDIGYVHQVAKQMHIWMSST
Chain of CDK1/cyclinB(h) (P06493 whole entry): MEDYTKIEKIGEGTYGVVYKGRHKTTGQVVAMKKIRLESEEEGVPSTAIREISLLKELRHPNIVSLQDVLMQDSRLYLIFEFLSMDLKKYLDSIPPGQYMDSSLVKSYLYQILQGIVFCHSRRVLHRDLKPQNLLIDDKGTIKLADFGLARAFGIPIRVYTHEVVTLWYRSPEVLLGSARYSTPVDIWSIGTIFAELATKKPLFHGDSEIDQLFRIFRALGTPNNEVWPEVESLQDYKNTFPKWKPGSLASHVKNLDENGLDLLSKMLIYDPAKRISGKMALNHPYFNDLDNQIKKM
Chain of CDK1/cyclinB(h) (P14635 whole entry partner): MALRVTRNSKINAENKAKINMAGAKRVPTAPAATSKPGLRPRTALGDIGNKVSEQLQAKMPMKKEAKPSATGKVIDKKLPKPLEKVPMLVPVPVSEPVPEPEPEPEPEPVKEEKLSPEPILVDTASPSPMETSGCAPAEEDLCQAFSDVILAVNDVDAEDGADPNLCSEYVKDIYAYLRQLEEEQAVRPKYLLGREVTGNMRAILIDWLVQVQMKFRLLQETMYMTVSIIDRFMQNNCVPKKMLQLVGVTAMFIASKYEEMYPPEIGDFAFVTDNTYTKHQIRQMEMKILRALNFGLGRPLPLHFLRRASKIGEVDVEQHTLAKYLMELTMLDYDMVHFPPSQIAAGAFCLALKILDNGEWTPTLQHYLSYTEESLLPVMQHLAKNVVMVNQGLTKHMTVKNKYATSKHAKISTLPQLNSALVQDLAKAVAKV

`CC(C)CCC(=O)[C@]1(O)C(O)=C(C(=O)C(C)C)C(=O)[C@H]1CCC(C)C` [TH2, tetrahydroiso-cohumulone] was tested, and the kinase inhibition (Abl(m); 1 μg/ml) was 98% of control, the kinase inhibition (Abl(m); 5 μg/ml) was 91% of control and the kinase inhibition (Abl(m); 25 μg/ml) was 69% of control. For the same molecule, the kinase inhibition (Abl(m); 50 μg/ml) was 32% of control, the kinase inhibition (Abl(m); 100 μg/ml) was 48% of control and the kinase inhibition (CDK1/cyclinB(h); 1 μg/ml) was 111% of control. For the same molecule, the kinase inhibition (CDK1/cyclinB(h); 5 μg/ml) was 111% of control, the kinase inhibition (CDK1/cyclinB(h); 25 μg/ml) was 90% of control and the kinase inhibition (CDK1/cyclinB(h); 50 μg/ml) was 86% of control. For the same molecule, the kinase inhibition (CDK1/cyclinB(h); 100 μg/ml) was 74% of control, the kinase inhibition (CK1γ1(h); 1 μg/ml) was 100% of control and the kinase inhibition (CK1γ1(h); 5 μg/ml) was 101% of control. The kinase inhibition (CK1γ1(h); 25 μg/ml) was 88% of control, the kinase inhibition (CK1γ1(h); 50 μg/ml) was 73% of control and the kinase inhibition (CK1γ1(h); 100 μg/ml) was 48% of control. The kinase inhibition (cKit(V560G)(h); 1 μg/ml) was 112% of control, the kinase inhibition (cKit(V560G)(h); 5 μg/ml) was 114% of control and the kinase inhibition (cKit(V560G)(h); 25 μg/ml) was 105% of control. For the same molecule, the kinase inhibition (cKit(V560G)(h); 50 μg/ml) was 90% of control, the kinase inhibition (cKit(V560G)(h); 100 μg/ml) was 78% of control and the kinase inhibition (FGFR3(h); 1 μg/ml) was 94% of control. The kinase inhibition (FGFR3(h); 5 μg/ml) was 92% of control, the kinase inhibition (FGFR3(h); 25 μg/ml) was 67% of control and the kinase inhibition (FGFR3(h); 50 μg/ml) was 64% of control. The kinase inhibition (FGFR3(h); 100 μg/ml) was 51% of control, the kinase inhibition (MKK4(m); 1 μg/ml) was 120% of control and the kinase inhibition (MKK4(m); 5 μg/ml) was 127% of control. For the same molecule, the kinase inhibition (MKK4(m); 25 μg/ml) was 91% of control, the kinase inhibition (MKK4(m); 50 μg/ml) was 95% of control and the kinase inhibition (MKK4(m); 100 μg/ml) was 85% of control. The kinase inhibition (NEK6(h); 1 μg/ml) was 103% of control, the kinase inhibition (NEK6(h); 5 μg/ml) was 100% of control and the kinase inhibition (NEK6(h); 25 μg/ml) was 79% of control. The kinase inhibition (NEK6(h); 50 μg/ml) was 67% of control, the kinase inhibition (NEK6(h); 100 μg/ml) was 53% of control and the kinase inhibition (NLK(h); 1 μg/ml) was 105% of control. The kinase inhibition (NLK(h); 5 μg/ml) was 104% of control, the kinase inhibition (NLK(h); 25 μg/ml) was 98% of control and the kinase inhibition (NLK(h); 50 μg/ml) was 96% of control. For the same molecule, the kinase inhibition (NLK(h); 100 μg/ml) was 85% of control, the kinase inhibition (Pim-3(h); 1 μg/ml) was 104% of control and the kinase inhibition (Pim-3(h); 5 μg/ml) was 104% of control. The kinase inhibition (Pim-3(h); 25 μg/ml) was 72% of control, the kinase inhibition (Pim-3(h); 50 μg/ml) was 70% of control and the kinase inhibition (Pim-3(h); 100 μg/ml) was 64% of control. For the same molecule, the kinase inhibition (PKA(h); 1 μg/ml) was 131% of control, the kinase inhibition (PKA(h); 5 μg/ml) was 124% of control and the kinase inhibition (PKA(h); 25 μg/ml) was 93% of control. For the same molecule, the kinase inhibition (PKA(h); 50 μg/ml) was 94% of control, the kinase inhibition (PKA(h); 100 μg/ml) was 86% of control and the kinase inhibition (TSSK2(h); 1 μg/ml) was 106% of control. The kinase inhibition (TSSK2(h); 5 μg/ml) was 99% of control, the kinase inhibition (TSSK2(h); 25 μg/ml) was 100% of control and the kinase inhibition (TSSK2(h); 50 μg/ml) was 97% of control. For the same molecule, the kinase inhibition (TSSK2(h); 100 μg/ml) was 87% of control.
